Data taken from patent publication US20210353593A1 (Chinook Therapeutics, Inc., priority 2019, published 2021).

Key:
[1] = patients with diabetic kidney disease; cited from earlier work
[2] = tested on: ET-1 stimulated HRMC; assay: Hallmark gene set enrichment in ET-1 stimulated HRMC treated with atrasentan; format: cell-based, human; details: atrasentan at 1 nM and 25 nM
[3] = tested on: upstream regulators in kidney tissue of g-ddY mice; assay: IPA upstream regulator analysis, g-ddY mouse kidney RNA-seq; format: in vivo; details: 30 mg/kg/day

## CCCCN(CCCC)C(=O)CN1C[C@H](c2ccc3c(c2)OCO3)[C@@H](C(=O)O)[C@@H]1c1ccc(OC)cc1 [Atrasentan, (2R,3R,4S)-4-(1,3-benzodioxol-5-yl)-1-[2-(dibutylamino)-2-oxoethyl]-2-(4-methoxyphenyl)pyrrolidine-3-carboxylic acid]
[1]
  risk of renal events (doubling of serum creatinine or end-stage kidney disease): significantly reducing the risk of renal events
[2]
  hallmark gene set enrichment in HRMC model: under-expression of hallmark gene sets
[3]
  26s Proteasome Activation z-score: −2.122
  26s Proteasome Predicted Activation State: Inhibited
  ADGRF5 Activation z-score: 2
  ADGRF5 Predicted Activation State: Activated
  AGT Activation z-score: −4.741
  AGT Predicted Activation State: Inhibited
  BMP2 Activation z-score: −2.435
  BMP2 Predicted Activation State: Inhibited
  CCL5 Activation z-score: −2.268
  CCL5 Predicted Activation State: Inhibited
  CCN5 Activation z-score: 2.45
  CCN5 Predicted Activation State: Activated
  CCR2 Activation z-score: −3.791
  CCR2 Predicted Activation State: Inhibited
  CD40LG Activation z-score: −3.607
  CD40LG Predicted Activation State: Inhibited
  CG Activation z-score: −4.34
  CG Predicted Activation State: Inhibited
  CHRM3 Activation z-score: −2.425
  CHRM3 Predicted Activation State: Inhibited
  CSF2 Activation z-score: −5.645
  CSF2 Predicted Activation State: Inhibited
  CSF3 Activation z-score: −3.116
  CSF3 Predicted Activation State: Inhibited
  CXCL12 Activation z-score: −2.851
  CXCL12 Predicted Activation State: Inhibited
  DKK1 Activation z-score: 2.113
  DKK1 Predicted Activation State: Activated
  EDN1 Activation z-score: −4.26
  EDN1 Predicted Activation State: Inhibited
  EDNRA Activation z-score: −2.449
  EDNRA Predicted Activation State: Inhibited
  EGF Activation z-score: −3.649
  EGF Predicted Activation State: Inhibited
  F2R Activation z-score: −3.04
  F2R Predicted Activation State: Inhibited
  F3 Activation z-score: −3.862
  F3 Predicted Activation State: Inhibited
  FAS Activation z-score: 2.887
  FAS Predicted Activation State: Activated
  FCGR1A Activation z-score: −2.201
  FCGR1A Predicted Activation State: Inhibited
  FGF2 Activation z-score: −4.33
  FGF2 Predicted Activation State: Inhibited
  FGF23 Activation z-score: −2.497
  FGF23 Predicted Activation State: Inhibited
  GDF2 Activation z-score: −2.055
  GDF2 Predicted Activation State: Inhibited
  GPER1 Activation z-score: −3.527
  GPER1 Predicted Activation State: Inhibited
  HGF Activation z-score: −5.138
  HGF Predicted Activation State: Inhibited
  HTR7 Activation z-score: −2.219
  HTR7 Predicted Activation State: Inhibited
  IFNA2 Activation z-score: −3.465
  IFNA2 Predicted Activation State: Inhibited
  IFNAR1 Activation z-score: −3.094
  IFNAR1 Predicted Activation State: Inhibited
  IFNG Activation z-score: −4.604
  IFNG Predicted Activation State: Inhibited
  IGF1 Activation z-score: −2.676
  IGF1 Predicted Activation State: Inhibited
  IGF1R Activation z-score: 2.165
  IGF1R Predicted Activation State: Activated
  IL1A Activation z-score: −4.942
  IL1A Predicted Activation State: Inhibited
  IL1B Activation z-score: −7.154
  IL1B Predicted Activation State: Inhibited
  IL2 Activation z-score: −4.023
  IL2 Predicted Activation State: Inhibited
  IL3 Activation z-score: −3.894
  IL3 Predicted Activation State: Inhibited
  IL6 Activation z-score: −3.872
  IL6 Predicted Activation State: Inhibited
  IL6R Activation z-score: −2.179
  IL6R Predicted Activation State: Inhibited
  IL10 Activation z-score: −2.775
  IL10 Predicted Activation State: Inhibited
  IL21 Activation z-score: −2.886
  IL21 Predicted Activation State: Inhibited
  IL33 Activation z-score: −3.781
  IL33 Predicted Activation State: Inhibited
  Ifn gamma Activation z-score: −3.354
  Ifn gamma Predicted Activation State: Inhibited
  Ige Activation z-score: −4.883
  Ige Predicted Activation State: Inhibited
  LDL Activation z-score: −3.568
  LDL Predicted Activation State: Inhibited
  LGR5 Activation z-score: 2.137
  LGR5 Predicted Activation State: Activated
  Laminin (complex) Activation z-score: 2.043
  Laminin (complex) Predicted Activation State: Activated
  NFkB (complex) Activation z-score: −5.503
  NFkB (complex) Predicted Activation State: Inhibited
  NRG1 Activation z-score: −3.478
  NRG1 Predicted Activation State: Inhibited
  OSM Activation z-score: −5.912
  OSM Predicted Activation State: Inhibited
  PDGF BB Activation z-score: −3.976
  PDGF BB Predicted Activation State: Inhibited
  PDGFB Activation z-score: −2.622
  PDGFB Predicted Activation State: Inhibited
  PF4 Activation z-score: −2.219
  PF4 Predicted Activation State: Inhibited
  PI3K (complex) Activation z-score: −3.293
  PI3K (complex) Predicted Activation State: Inhibited
  PLA2R1 Activation z-score: 2.917
  PLA2R1 Predicted Activation State: Activated
  PRL Activation z-score: −3.529
  PRL Predicted Activation State: Inhibited
  PROKR1 Activation z-score: 2
  PROKR1 Predicted Activation State: Activated
  PTGER4 Activation z-score: 2.017
  PTGER4 Predicted Activation State: Activated
  Pdgf (complex) Activation z-score: −2.779
  Pdgf (complex) Predicted Activation State: Inhibited
  SMO Activation z-score: 2.621
  SMO Predicted Activation State: Activated
  TCR Activation z-score: −2.362
  TCR Predicted Activation State: Inhibited
  TGFB1 Activation z-score: −5.163
  TGFB1 Predicted Activation State: Inhibited
  TGFB2 Activation z-score: −2.631
  TGFB2 Predicted Activation State: Inhibited
  TGFB3 Activation z-score: −2.663
  TGFB3 Predicted Activation State: Inhibited
  TLR3 Activation z-score: −5.02
  TLR3 Predicted Activation State: Inhibited
  TLR4 Activation z-score: −4.561
  TLR4 Predicted Activation State: Inhibited
  TLR9 Activation z-score: −4.894
  TLR9 Predicted Activation State: Inhibited
  TNF Activation z-score: −6.593
  TNF Predicted Activation State: Inhibited
  TNFRSF1A Activation z-score: −2.449
  TNFRSF1A Predicted Activation State: Inhibited
  TNFSF11 Activation z-score: −2.519
  TNFSF11 Predicted Activation State: Inhibited
  TNFSF12 Activation z-score: −3.271
  TNFSF12 Predicted Activation State: Inhibited
  TREM1 Activation z-score: −3.62
  TREM1 Predicted Activation State: Inhibited
  TSLP Activation z-score: −2.533
  TSLP Predicted Activation State: Inhibited
  TYROBP Activation z-score: −2.376
  TYROBP Predicted Activation State: Inhibited
  VEGFA Activation z-score: −2.501
  VEGFA Predicted Activation State: Inhibited
  VEGFB Activation z-score: 3.128
  VEGFB Predicted Activation State: Activated
  WNT3A Activation z-score: −3.711
  WNT3A Predicted Activation State: Inhibited
